According to ChEMBL document CHEMBL3994670, “Therapeutic Advantage of the Positive Allosteric Modulators of the GABA-B Receptor” (ACS Med Chem Lett, 2017):

Assay: Positive allosteric modulation of GABA-B receptor in rat brain cortex membranes assessed as increase in GABA-induced [35S]GTPgammaS binding after 60 mins by liquid scintillation counting method
Assay type: cell membranes

EC50 [µM]	SMILES
2.59	CC(=O)Nc1cccc(-c2nn(Cc3ccc(Cl)cc3)c(=O)c3c(C(C)C)noc23)c1
2.69	Cc1noc2c(-c3cncc(F)c3)nn(C(C)c3ccc(Cl)cc3)c(=O)c12 (stereo unspecified)
0.051	COc1ccc(NC(C)=O)cc1-c1nn([C@@H](C)c2ccc(Cl)cc2)c(=O)c2c(C3CC3)noc12
0.043	COc1ccc(NC(C)=O)cc1-c1nn([C@@H](C)c2ccc(Cl)cc2)c(=O)c2c(C)noc12
0.017	COc1ccc(C(N)=O)cc1-c1nn(C(C)c2ccc(Cl)cc2)c(=O)c2c(C)noc12 (stereo unspecified)
0.023	CNC(=O)c1ccc(OC)c(-c2nn([C@@H](C)c3ccc(Cl)cc3)c(=O)c3c(C)noc23)c1
